{"source": "ChEMBL document CHEMBL5678818", "about": "“Discovery of potent SOS1 inhibitors that block RAS activation via disruption of the RAS-SOS1 interaction” (Proc Natl Acad Sci U S A, 2019)", "key": {"[1]": {"biological_target": "T1, Mitogen-activated protein kinase 12 (Homo sapiens) (UniProt P53778)", "T1 sequence (whole entry)": "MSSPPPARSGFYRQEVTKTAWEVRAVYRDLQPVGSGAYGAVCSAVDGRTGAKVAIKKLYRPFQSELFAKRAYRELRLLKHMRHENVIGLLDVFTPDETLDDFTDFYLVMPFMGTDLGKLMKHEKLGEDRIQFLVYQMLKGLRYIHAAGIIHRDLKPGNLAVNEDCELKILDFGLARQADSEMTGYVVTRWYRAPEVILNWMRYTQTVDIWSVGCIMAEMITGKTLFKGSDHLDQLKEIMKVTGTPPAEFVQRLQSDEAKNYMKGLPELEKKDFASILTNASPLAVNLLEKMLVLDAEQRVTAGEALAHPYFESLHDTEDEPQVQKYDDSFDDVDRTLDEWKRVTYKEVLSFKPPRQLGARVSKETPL", "experiment": "Inhibition of p38-gamma (unknown origin) assessed as residual activity at 100 nM by KINOMEscan analysis relative to control"}, "[2]": {"biological_target": "T2, Tyrosine-protein kinase receptor TYRO3 (Homo sapiens) (UniProt Q06418)", "T2 sequence (whole entry)": "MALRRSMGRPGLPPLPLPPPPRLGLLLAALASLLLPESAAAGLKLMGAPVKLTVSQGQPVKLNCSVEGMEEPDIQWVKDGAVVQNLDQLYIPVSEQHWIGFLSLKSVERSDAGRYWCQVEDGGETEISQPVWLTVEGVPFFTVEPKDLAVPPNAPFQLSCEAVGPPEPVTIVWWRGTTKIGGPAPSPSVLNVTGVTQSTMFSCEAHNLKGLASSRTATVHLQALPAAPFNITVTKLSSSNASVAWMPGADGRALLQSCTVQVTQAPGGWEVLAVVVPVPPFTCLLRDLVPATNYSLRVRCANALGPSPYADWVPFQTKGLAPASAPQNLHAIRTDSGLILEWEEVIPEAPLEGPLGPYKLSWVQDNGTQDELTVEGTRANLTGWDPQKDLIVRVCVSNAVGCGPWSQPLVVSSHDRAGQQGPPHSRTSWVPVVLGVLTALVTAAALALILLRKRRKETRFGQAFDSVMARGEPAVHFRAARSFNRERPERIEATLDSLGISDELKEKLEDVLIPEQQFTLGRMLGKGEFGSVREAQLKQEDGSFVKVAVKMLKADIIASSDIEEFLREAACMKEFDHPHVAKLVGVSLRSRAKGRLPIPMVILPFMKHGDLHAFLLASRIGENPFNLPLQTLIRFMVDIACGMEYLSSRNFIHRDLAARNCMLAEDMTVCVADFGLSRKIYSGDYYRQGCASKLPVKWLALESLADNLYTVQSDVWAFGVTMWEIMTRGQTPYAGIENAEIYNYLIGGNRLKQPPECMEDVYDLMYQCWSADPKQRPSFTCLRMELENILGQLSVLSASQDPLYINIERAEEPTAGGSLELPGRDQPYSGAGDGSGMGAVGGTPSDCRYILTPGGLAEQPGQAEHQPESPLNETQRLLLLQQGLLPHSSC", "experiment": "Inhibition of TYRO3 (unknown origin) assessed as residual activity at 100 nM by KINOMEscan analysis relative to control"}, "[3]": {"biological_target": "T3, Phosphatidylinositol 4,5-bisphosphate 3-kinase catalytic subunit delta isoform (Homo sapiens) (UniProt O00329)", "T3 sequence (whole entry)": "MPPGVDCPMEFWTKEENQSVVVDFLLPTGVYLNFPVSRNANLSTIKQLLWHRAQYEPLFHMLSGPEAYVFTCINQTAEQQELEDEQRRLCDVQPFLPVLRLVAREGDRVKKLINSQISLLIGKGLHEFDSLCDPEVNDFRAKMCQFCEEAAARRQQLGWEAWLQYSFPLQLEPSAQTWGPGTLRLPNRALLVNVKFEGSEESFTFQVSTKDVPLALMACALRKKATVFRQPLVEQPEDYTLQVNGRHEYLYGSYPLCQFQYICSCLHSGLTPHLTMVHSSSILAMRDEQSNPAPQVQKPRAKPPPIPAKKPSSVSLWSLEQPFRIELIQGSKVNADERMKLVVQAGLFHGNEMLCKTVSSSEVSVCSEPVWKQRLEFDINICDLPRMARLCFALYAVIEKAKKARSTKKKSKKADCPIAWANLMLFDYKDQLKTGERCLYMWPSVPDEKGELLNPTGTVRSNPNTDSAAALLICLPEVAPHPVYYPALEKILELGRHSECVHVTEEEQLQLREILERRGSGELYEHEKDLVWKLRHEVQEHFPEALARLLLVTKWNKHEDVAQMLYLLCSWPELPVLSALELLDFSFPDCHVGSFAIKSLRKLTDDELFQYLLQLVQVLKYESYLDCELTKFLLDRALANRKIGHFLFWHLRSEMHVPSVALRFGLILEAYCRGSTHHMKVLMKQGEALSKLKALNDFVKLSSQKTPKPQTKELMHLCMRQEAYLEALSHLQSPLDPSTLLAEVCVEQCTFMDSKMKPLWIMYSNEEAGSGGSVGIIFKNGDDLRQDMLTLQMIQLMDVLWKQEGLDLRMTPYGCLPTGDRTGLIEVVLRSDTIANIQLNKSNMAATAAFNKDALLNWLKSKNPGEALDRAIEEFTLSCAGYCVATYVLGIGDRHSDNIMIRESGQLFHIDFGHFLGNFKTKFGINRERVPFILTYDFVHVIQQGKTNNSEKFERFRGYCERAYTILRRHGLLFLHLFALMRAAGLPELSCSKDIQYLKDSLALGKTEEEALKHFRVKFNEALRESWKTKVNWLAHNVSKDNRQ", "experiment": "Inhibition of PIK3CD (unknown origin) assessed as residual activity at 100 nM by KINOMEscan analysis relative to control"}, "[4]": {"biological_target": "Epithelial discoidin domain-containing receptor 1 (Homo sapiens) (UniProt Q08345)", "sequence (Q08345 whole entry, the tested form may be a part)": "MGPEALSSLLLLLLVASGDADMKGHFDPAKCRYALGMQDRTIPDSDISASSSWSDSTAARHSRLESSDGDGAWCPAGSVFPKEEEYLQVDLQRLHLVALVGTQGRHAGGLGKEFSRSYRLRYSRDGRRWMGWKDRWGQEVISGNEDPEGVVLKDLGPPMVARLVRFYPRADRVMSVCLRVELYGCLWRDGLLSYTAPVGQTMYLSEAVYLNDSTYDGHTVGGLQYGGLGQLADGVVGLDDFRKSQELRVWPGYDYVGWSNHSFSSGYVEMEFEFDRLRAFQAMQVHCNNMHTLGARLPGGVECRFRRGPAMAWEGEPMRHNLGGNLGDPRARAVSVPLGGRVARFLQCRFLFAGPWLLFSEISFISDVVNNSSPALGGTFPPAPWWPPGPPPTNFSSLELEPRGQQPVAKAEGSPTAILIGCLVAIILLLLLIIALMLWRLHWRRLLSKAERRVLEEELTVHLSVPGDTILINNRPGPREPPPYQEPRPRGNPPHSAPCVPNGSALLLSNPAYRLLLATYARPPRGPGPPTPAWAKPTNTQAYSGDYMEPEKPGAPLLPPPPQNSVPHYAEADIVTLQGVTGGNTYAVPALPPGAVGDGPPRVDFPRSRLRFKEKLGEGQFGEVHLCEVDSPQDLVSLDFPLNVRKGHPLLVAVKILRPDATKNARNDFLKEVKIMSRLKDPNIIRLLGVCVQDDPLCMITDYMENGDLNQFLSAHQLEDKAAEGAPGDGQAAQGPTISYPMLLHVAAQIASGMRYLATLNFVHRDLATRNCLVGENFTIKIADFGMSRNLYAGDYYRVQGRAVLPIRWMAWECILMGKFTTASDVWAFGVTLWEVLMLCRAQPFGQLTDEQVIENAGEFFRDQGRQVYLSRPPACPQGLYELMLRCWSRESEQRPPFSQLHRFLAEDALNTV", "experiment": "Inhibition of DDR1 (unknown origin) assessed as residual activity at 100 nM by KINOMEscan analysis relative to control"}, "[5]": {"biological_target": "Death-associated protein kinase 1 (Homo sapiens) (UniProt P53355)", "sequence (P53355 whole entry, looked up)": "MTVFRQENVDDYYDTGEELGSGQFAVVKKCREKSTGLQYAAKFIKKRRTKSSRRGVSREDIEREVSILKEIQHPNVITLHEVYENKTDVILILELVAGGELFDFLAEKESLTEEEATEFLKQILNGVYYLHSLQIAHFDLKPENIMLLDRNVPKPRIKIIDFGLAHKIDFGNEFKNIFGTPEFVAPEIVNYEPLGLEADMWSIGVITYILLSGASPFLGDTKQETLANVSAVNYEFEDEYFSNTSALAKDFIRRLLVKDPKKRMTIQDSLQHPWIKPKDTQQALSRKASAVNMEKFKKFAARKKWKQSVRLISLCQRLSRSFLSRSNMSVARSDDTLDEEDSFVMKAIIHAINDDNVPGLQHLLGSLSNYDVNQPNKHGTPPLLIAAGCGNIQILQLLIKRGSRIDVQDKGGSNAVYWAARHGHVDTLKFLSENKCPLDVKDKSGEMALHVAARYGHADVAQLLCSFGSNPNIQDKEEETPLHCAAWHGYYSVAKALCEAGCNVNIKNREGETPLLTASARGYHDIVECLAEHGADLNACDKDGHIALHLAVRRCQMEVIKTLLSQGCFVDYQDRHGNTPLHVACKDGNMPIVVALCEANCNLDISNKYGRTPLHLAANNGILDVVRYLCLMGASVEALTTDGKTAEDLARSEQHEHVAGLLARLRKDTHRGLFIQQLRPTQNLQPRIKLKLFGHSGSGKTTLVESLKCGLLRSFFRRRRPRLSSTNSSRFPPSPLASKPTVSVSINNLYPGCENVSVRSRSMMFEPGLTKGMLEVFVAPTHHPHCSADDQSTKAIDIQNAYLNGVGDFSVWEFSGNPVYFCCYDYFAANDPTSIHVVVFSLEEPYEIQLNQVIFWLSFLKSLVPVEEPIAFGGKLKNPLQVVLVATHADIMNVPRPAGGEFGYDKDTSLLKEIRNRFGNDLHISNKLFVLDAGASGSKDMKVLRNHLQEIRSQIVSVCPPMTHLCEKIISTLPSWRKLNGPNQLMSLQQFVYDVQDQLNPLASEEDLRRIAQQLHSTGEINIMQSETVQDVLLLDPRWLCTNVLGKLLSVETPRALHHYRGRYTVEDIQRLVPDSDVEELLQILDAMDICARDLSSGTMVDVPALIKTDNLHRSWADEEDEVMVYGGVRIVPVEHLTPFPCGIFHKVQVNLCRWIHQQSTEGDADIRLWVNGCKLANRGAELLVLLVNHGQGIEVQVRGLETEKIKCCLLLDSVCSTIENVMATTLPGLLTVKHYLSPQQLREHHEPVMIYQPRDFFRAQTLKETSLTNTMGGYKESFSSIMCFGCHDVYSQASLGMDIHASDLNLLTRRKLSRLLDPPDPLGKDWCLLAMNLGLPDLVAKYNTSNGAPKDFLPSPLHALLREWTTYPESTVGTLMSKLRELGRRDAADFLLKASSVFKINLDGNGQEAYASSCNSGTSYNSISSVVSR", "experiment": "Inhibition of DAPK1 (unknown origin) assessed as residual activity at 100 nM by KINOMEscan analysis relative to control"}, "[6]": {"biological_target": "Mitogen-activated protein kinase 1 (Homo sapiens) (UniProt P28482)", "sequence (P28482 whole entry)": "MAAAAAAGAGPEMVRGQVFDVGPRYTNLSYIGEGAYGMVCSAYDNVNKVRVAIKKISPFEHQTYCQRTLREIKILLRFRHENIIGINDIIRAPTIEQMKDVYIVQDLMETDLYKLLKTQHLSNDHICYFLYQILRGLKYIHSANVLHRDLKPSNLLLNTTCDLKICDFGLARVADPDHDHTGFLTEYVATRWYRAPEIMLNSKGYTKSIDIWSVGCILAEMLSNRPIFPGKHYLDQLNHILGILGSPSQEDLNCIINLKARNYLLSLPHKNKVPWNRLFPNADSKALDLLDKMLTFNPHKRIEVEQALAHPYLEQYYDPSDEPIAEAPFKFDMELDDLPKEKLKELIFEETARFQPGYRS", "experiment": "Inhibition of ERK2 (unknown origin) assessed as residual activity at 100 nM by KINOMEscan analysis relative to control"}, "[7]": {"biological_target": "Cyclin-dependent kinase 17 (Homo sapiens) (UniProt Q00537)", "sequence (Q00537 whole entry, looked up)": "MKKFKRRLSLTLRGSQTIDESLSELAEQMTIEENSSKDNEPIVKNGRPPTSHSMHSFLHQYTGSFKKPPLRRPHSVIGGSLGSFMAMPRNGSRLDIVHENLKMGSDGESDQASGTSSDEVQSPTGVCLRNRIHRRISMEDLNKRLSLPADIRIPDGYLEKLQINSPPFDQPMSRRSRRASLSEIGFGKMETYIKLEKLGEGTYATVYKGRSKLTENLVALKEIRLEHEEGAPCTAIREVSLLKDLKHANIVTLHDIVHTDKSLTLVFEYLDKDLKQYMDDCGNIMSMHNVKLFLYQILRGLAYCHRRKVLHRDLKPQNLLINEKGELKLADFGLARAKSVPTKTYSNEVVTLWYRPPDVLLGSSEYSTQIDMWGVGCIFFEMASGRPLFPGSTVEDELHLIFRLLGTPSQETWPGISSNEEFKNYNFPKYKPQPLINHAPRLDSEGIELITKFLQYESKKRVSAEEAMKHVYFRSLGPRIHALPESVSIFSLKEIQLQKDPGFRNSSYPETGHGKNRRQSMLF", "experiment": "Inhibition of PCTK2 (unknown origin) assessed as residual activity at 100 nM by KINOMEscan analysis relative to control"}, "[8]": {"biological_target": "Dual specificity mitogen-activated protein kinase kinase 1 (Homo sapiens) (UniProt Q02750)", "sequence (Q02750 whole entry)": "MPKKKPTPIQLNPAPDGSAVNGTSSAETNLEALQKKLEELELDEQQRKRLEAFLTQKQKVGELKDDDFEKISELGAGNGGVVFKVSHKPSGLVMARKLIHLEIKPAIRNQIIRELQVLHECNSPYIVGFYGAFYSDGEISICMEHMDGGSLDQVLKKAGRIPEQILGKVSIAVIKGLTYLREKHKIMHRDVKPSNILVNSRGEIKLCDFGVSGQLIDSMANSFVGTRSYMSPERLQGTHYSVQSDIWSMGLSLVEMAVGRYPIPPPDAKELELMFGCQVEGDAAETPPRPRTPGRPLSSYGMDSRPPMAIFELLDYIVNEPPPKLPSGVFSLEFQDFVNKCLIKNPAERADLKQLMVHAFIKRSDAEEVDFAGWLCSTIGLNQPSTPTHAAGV", "experiment": "Inhibition of MEK1 (unknown origin) assessed as residual activity at 100 nM by KINOMEscan analysis relative to control"}}, "data": [{"molecule": "COc1cc2ncnc(N[C@H](C)c3cccc4ccccc34)c2cc1OC", "values": [{"measurement": "Activity", "setting": "[1]", "result": 96, "unit": "%"}, {"measurement": "Activity", "setting": "[2]", "result": 76, "unit": "%"}, {"measurement": "Activity", "setting": "[3]", "result": 87, "unit": "%"}, {"measurement": "Activity", "setting": "[4]", "result": 100, "unit": "%"}, {"measurement": "Activity", "setting": "[5]", "result": 100, "unit": "%"}, {"measurement": "Activity", "setting": "[6]", "result": 72, "unit": "%"}, {"measurement": "Activity", "setting": "[7]", "result": 86, "unit": "%"}, {"measurement": "Activity", "setting": "[8]", "result": 98, "unit": "%"}]}]}
